One assay deals with T1, TBK1 (Homo sapiens, UniProt Q9UHD2).
T1 construct: purchased Promega (Invitrogen is also named in the same bracket) V4158; PR8031B; V3991 (not assigned to the two kinases)
T1 sequence (Q9UHD2 1-729): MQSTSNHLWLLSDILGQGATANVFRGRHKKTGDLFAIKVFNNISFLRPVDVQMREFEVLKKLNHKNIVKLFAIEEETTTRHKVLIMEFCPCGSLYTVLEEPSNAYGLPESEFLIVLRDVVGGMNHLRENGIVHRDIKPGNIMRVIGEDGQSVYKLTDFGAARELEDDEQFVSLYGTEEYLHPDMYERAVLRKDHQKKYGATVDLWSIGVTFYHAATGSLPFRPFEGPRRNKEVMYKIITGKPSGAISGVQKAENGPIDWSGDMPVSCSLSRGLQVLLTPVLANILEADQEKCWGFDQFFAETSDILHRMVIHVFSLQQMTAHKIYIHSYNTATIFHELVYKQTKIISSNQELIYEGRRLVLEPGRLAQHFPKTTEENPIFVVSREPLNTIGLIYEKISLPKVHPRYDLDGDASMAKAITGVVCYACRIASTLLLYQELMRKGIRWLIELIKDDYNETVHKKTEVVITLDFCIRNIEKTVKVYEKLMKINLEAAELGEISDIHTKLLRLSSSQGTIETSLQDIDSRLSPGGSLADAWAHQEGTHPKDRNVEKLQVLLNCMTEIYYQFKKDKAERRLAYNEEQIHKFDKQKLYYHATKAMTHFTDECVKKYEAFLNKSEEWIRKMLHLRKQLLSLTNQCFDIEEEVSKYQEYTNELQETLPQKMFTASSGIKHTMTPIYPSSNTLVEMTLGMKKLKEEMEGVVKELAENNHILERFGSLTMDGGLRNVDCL
Kind of assay: ADP-Glo Kinase Assay, inhibition activity on TBK1. The assay is classed as biochemical. An outline of the steps:
(§1)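 In 40 mM Tris pH 7.5 with 20 mM MgCl2 and 0.1 mg/mL BSA, each enzyme (IKKε or TBK1 kinase system) was run according to the manufacturer's protocol. ADP formed was detected by ADP-Glo luminescence.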
A general note: In ADP-Glo the light output rises with the ADP produced.

In a further assay the target is T2, IKKε (Homo sapiens, UniProt Q14164).
T2 construct: purchased Promega and/or Invitrogen V4158; PR8031B; V3991 (not assigned to the two kinases)
T2 sequence (Q14164 1-716): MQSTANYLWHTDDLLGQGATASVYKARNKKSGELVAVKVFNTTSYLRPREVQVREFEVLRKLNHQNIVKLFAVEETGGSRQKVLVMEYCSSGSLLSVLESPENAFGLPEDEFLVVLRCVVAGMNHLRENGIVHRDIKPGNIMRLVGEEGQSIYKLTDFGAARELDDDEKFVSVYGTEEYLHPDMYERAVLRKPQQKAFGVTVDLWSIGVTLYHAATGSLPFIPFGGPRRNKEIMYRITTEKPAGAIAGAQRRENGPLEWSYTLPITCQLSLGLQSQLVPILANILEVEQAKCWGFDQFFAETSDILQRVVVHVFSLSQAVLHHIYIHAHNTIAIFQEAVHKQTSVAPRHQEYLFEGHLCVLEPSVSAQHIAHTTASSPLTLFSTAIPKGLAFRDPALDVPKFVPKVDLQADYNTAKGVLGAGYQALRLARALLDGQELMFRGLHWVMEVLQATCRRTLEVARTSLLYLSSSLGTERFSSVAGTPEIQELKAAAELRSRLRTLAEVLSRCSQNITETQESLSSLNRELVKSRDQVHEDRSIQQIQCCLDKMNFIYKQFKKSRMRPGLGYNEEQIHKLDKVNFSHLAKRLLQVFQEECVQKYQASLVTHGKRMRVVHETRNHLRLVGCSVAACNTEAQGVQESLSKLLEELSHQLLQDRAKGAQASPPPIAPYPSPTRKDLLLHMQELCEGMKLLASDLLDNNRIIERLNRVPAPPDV
Kind of assay: ADP-Glo Kinase Assay, inhibition activity on IKKε. The assay is classed as biochemical. An outline of the steps:
as §1

pIC50: −log10 of the molar value.

As to `O=C(c1cccs1)N1CC=C(c2c[nH]c3ncc(Nc4ccc(CN5CCOCC5)cc4)cc23)CC1` [Example 250, (4-(5-(4-(morpholinomethyl)phenylamino)-1H-pyrrolo[2,3-b]pyridin-3-yl)-5,6-dihydropyridin-1(2H)-yl)(thiophen-2-yl)methanone], the pIC50 against TBK1 was 6.77; against IKKε, 6.08.

Usually pIC50 stands for the IC50 on a negative log10 scale, so that one unit is a factor of ten. Read a low pIC50 as a large IC50.

The values above are taken from patent US10239873B2, “7-azaindole or 4,7-diazaindole derivatives as IKKϵ epsilon and TBK1 inhibitor and pharmaceutical composition comprising same” (GREEN CROSS CORPORATION, priority 2015, dated 2019).
